Reference: the supplement of paper PMC10307832

Key:
Experiment in all cases: relative viability (nuclei count vs DMSO), 5 days (fraction); higher = more cells survive
Sorafenib + OSI-027 = compound: CNC(=O)c1cc(Oc2ccc(NC(=O)Nc3ccc(Cl)c(C(F)(F)F)c3)cc2)ccn1 [Sorafenib] + COc1cccc2cc(-c3nc([C@H]4CC[C@H](C(=O)O)CC4)n4ncnc(N)c34)[nH]c12 [OSI-027] (partner 0.5 µM)
Summary of the method: (§1)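 Nuclei were stained with Hoechst during a one-step fixation (final 0.05% Triton X-100, 1% formaldehyde, 1 ug/ml Hoechst) carried out 5 days after dosing, then counted on 4× images. The cells, lung cancer lines in 1536-well plates, had been dosed by pin tool the day after seeding with one drug alone or a fixed anchor-drug dose plus five library-drug doses (not always all listed) in √10 steps. Relative viability is the nuclei count in treated wells divided by that in vehicle wells, and each value is the median of duplicate plates.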

Sorafenib + Crizotinib = compound: CNC(=O)c1cc(Oc2ccc(NC(=O)Nc3ccc(Cl)c(C(F)(F)F)c3)cc2)ccn1 [Sorafenib] + C[C@@H](Oc1cc(-c2cnn(C3CCNCC3)c2)cnc1N)c1c(Cl)ccc(F)c1Cl [Crizotinib] (partner 1 µM)
Summary of the method: as §1

Sorafenib + Linsitinib = compound: CNC(=O)c1cc(Oc2ccc(NC(=O)Nc3ccc(Cl)c(C(F)(F)F)c3)cc2)ccn1 [Sorafenib] + C[C@]1(O)C[C@@H](c2nc(-c3ccc4ccc(-c5ccccc5)nc4c3)c3c(N)nccn32)C1 [Linsitinib] (partner 1 µM)
Summary of the method: as §1

Sorafenib + Tozasertib = compound: CNC(=O)c1cc(Oc2ccc(NC(=O)Nc3ccc(Cl)c(C(F)(F)F)c3)cc2)ccn1 [Sorafenib] + Cc1cc(Nc2cc(N3CCN(C)CC3)nc(Sc3ccc(NC(=O)C4CC4)cc3)n2)n[nH]1 [Tozasertib] (partner 0.1 µM)
Summary of the method: as §1

Sorafenib + Dasatinib = compound: CNC(=O)c1cc(Oc2ccc(NC(=O)Nc3ccc(Cl)c(C(F)(F)F)c3)cc2)ccn1 [Sorafenib] + Cc1nc(Nc2ncc(C(=O)Nc3c(C)cccc3Cl)s2)cc(N2CCN(CCO)CC2)n1 [Dasatinib] (partner 0.075 µM)
Summary of the method: as §1

| Cell Line | relative viability (Sorafenib + OSI-027; first compound 0.08 µM) | relative viability (Sorafenib + OSI-027; first compound 0.253 µM) | relative viability (Sorafenib + OSI-027; first compound 2.53 µM) | relative viability (Sorafenib + OSI-027; first compound 8 µM) | relative viability (Sorafenib + Crizotinib; first compound 0.08 µM) | relative viability (Sorafenib + Crizotinib; first compound 0.253 µM) | relative viability (Sorafenib + Crizotinib; first compound 2.53 µM) | relative viability (Sorafenib + Crizotinib; first compound 8 µM) | relative viability (Sorafenib + Linsitinib; first compound 0.08 µM) | relative viability (Sorafenib + Linsitinib; first compound 0.253 µM) | relative viability (Sorafenib + Linsitinib; first compound 2.53 µM) | relative viability (Sorafenib + Linsitinib; first compound 8 µM) | relative viability (Sorafenib + Tozasertib; first compound 0.08 µM) | relative viability (Sorafenib + Tozasertib; first compound 0.253 µM) | relative viability (Sorafenib + Tozasertib; first compound 2.53 µM) | relative viability (Sorafenib + Tozasertib; first compound 8 µM) | relative viability (Sorafenib + Dasatinib; first compound 0.08 µM) | relative viability (Sorafenib + Dasatinib; first compound 0.253 µM) | relative viability (Sorafenib + Dasatinib; first compound 2.53 µM) | relative viability (Sorafenib + Dasatinib; first compound 8 µM) |
| --- | --- | --- | --- | --- | --- | --- | --- | --- | --- | --- | --- | --- | --- | --- | --- | --- | --- | --- | --- | --- |
| RERF-LC-KJ | 0.601 | 0.502 | 0.649 | 0.397 | 0.885 | 0.798 | 0.856 | 0.768 | 0.873 | 0.872 | 0.798 | 0.739 | 0.532 | 0.489 | 0.41 | 0.221 | 0.967 | 0.668 | 0.77 | 0.401 |
| 201T |  | 0.706 | 0.804 | 0.671 | 1.03 | 1.01 | 1.13 | 1.08 | 1 | 0.985 | 1.02 | 1.06 | 0.964 | 0.925 | 0.955 | 0.827 | 0.584 | 0.578 | 0.596 | 0.458 |
| NCI-H1915 | 0.659 | 0.558 | 0.682 | 0.512 | 0.892 | 0.786 | 0.829 | 0.907 | 1.06 | 0.952 | 0.949 | 1.15 | 0.454 | 0.409 | 0.397 | 0.374 | 0.326 | 0.327 | 0.402 | 0.273 |
| NCI-H1734 | 0.585 | 0.534 | 0.584 | 0.318 | 0.746 | 0.625 | 0.66 | 0.426 | 0.967 | 0.836 | 0.841 | 0.742 | 0.266 | 0.224 | 0.249 | 0.212 | 0.536 | 0.402 | 0.402 | 0.357 |
| LOU-NH91 | 0.783 | 0.713 | 0.788 | 0.799 | 0.841 | 0.751 | 0.844 | 0.654 | 1.07 | 0.973 | 1.13 | 0.873 | 0.69 | 0.681 | 0.767 | 0.647 | 0.692 | 0.52 | 0.686 | 0.361 |
| HARA | 0.606 | 0.5 | 0.619 | 0.257 | 1.15 | 1.02 | 1.03 | 0.931 | 1.13 | 0.859 | 0.94 | 0.927 | 0.0919 | 0.137 | 0.146 | 0.1 | 0.296 | 0.197 | 0.248 | 0.229 |
| NCI-H520 | 0.352 | 0.254 | 0.246 | 0.246 | 0.912 | 0.695 | 0.67 | 0.581 | 1.01 | 0.905 | 0.919 | 0.307 | 0.517 | 0.436 | 0.432 | 0.331 | 0.231 | 0.225 | 0.216 | 0.174 |
| NCI-H358 |  | 0.75 | 0.839 |  | 0.56 | 0.72 | 0.713 | 0.292 | 0.763 | 0.85 | 0.748 | 0.255 | 0.112 | 0.0906 | 0.0966 | 0.073 | 0.202 | 0.186 | 0.379 | 0.151 |
| NCI-H596 | 0.732 | 0.664 | 0.671 | 0.447 | 0.963 | 0.982 | 1.06 | 0.957 | 1.06 | 0.982 | 1.07 | 1.26 | 1.01 | 0.907 | 0.871 | 0.406 | 0.68 | 0.53 | 0.55 | 0.461 |
| LK-2 | 0.201 | 0.193 | 0.19 | 0.139 | 0.208 |  | 0.263 | 0.256 | 0.672 | 0.364 | 0.451 | 0.516 | 0.17 | 0.226 | 0.17 | 0.153 | 0.259 | 0.267 | 0.341 | 0.263 |
| NCI-H650 | 0.541 | 0.363 | 0.451 | 0.504 | 0.777 | 0.563 | 0.735 | 0.595 | 0.81 | 0.664 | 0.776 | 0.716 | 0.718 | 0.659 | 0.62 | 0.592 | 0.508 | 0.367 | 0.462 | 0.425 |
| EKVX | 0.712 | 0.74 | 0.701 | 0.649 | 0.96 | 0.846 | 0.917 | 0.877 | 1.12 | 0.983 | 0.989 | 0.912 | 0.382 | 0.419 | 0.467 | 0.212 | 0.628 | 0.449 | 0.376 | 0.349 |
| EPLC-272H | 0.314 | 0.296 | 0.273 | 0.269 |  | 0.819 |  | 0.855 | 1.31 | 1.09 | 1.11 |  | 0.331 | 0.389 | 0.389 | 0.293 | 0.479 | 0.341 | 0.402 | 0.254 |
| NCI-H2087 | 0.658 | 0.556 | 0.455 | 0.3 | 0.83 | 0.746 | 0.784 | 0.308 | 0.756 | 0.853 | 0.956 | 0.275 | 0.26 | 0.241 | 0.212 | 0.152 | 1.03 | 0.744 | 0.684 | 0.154 |
| NCI-H322M | 0.615 | 0.48 | 0.542 | 0.587 | 0.945 | 0.848 | 0.894 | 0.859 | 0.886 | 1.05 | 0.912 | 0.984 | 0.512 | 0.394 | 0.527 | 0.475 | 0.261 | 0.259 | 0.319 | 0.302 |
| LXF-289 | 0.787 | 0.814 |  | 0.764 | 0.816 | 0.814 | 0.824 | 0.757 | 0.977 | 0.986 | 1.04 | 0.894 | 0.178 | 0.184 | 0.177 | 0.174 | 0.292 | 0.205 | 0.187 | 0.196 |
| HCC-827 | 0.956 | 0.715 | 0.723 | 0.723 |  | 0.918 | 0.94 | 0.853 | 0.934 | 0.88 | 0.986 | 0.851 | 0.423 | 0.471 | 0.421 | 0.45 | 0.38 | 0.435 | 0.299 | 0.327 |
| SW 1573 | 0.79 | 0.517 | 0.553 | 0.21 | 0.984 | 0.86 | 0.89 | 0.753 | 0.805 | 0.786 | 0.79 | 0.378 | 0.194 | 0.205 | 0.174 | 0.119 | 0.752 | 0.38 | 0.505 | 0.213 |
| NCI-H1355 | 0.459 | 0.38 | 0.512 | 0.336 | 1.16 | 1.04 | 1.04 | 1.11 | 0.925 | 0.823 | 0.785 | 0.781 | 0.55 | 0.592 | 0.416 | 0.354 | 0.74 | 0.627 | 0.816 | 0.54 |
| NCI-H1975 | 0.812 | 0.55 | 0.695 | 0.375 | 0.988 | 1.03 | 0.985 | 0.466 | 1.01 | 1.02 | 1.08 | 0.491 | 0.873 | 0.704 | 0.643 | 0.162 | 0.423 | 0.305 | 0.374 | 0.314 |
| NCI-H661 | 0.759 | 0.73 | 0.655 | 0.483 | 0.944 | 0.969 | 0.921 | 0.742 | 0.816 | 0.57 | 0.55 | 0.417 | 0.35 | 0.378 | 0.333 |  | 0.978 | 0.82 | 0.815 | 0.215 |
| H3255 | 0.634 | 0.566 | 0.619 | 0.349 | 1.06 | 0.809 | 0.799 | 0.62 |  | 0.71 | 0.903 | 0.611 | 0.588 | 0.458 | 0.72 | 0.482 | 0.497 | 0.344 | 0.345 | 0.201 |
| NCI-H1993 | 0.477 | 0.517 | 0.504 | 0.435 | 0.988 | 1 | 1.08 | 0.851 | 0.774 | 0.675 |  | 0.819 | 0.601 | 0.565 | 0.584 | 0.608 | 0.547 | 0.302 | 0.554 | 0.384 |
| NCI-H441 | 0.588 |  | 0.423 | 0.297 | 0.727 | 0.64 | 0.532 | 0.473 | 0.563 | 0.417 | 0.355 | 0.302 | 0.644 |  | 0.542 | 0.386 |  |  | 0.503 | 0.308 |
